Source: paper PMC5997364, “OG716: Designing a fit-for-purpose lantibiotic for the treatment of Clostridium difficile infections” (PLoS ONE, 2018)
Converted amounts (≈) assume the structure as drawn. “And” between values parts separate entries of the source, which are not always exact repeats. Equal entries are not always repeated. Where two headings read alike, the source gives them in different places.

What was measured:
[1] = 1.0 mg/mL in water
Procedure: Five aliquots of each compound were prepared by dissolving them to 1.0 mg/mL in HPLC grade water (Fisher Scientific, USA). A total of 2 aliquots of the solution were placed in a 37°C stability chamber, and 2 aliquots were placed in a 50°C chamber. Samples were collected on days 0, 2 and 7, centrifuged at 12,000 x g for 5 min, and the supernatants were transferred to a fresh tube. Each sample was diluted 1:4 with 0.05% trifluoroacetic acid (TFA) and the purity and quantity were analyzed by HPLC as described above.

[2] = system: C. difficile; test: microbe, parasite or virus in culture; type: cell-based, Clostridium difficile
Procedure: MIC testing for C. difficile was performed by Eurofins Panlabs Taiwan LTD based on modifications from the CLSI M11-A8 broth dilution method for Bacteroides fragilis susceptibility testing. Briefly, Reinforced Clostridial Medium (RCM) was pre-reduced by over-night incubation in an anaerobic chamber (80% N2, 10% CO2, and 10% H2) prior to use. MU1140 and variants were dissolved in 100% DMSO, diluted by 2-fold serial dilution in 100% DMSO, for a total of 11 concentrations. A 4 μL aliquot of each dilution was added to 96 μL RCM in wells of a 96 well plate using a Biomek FX instrument (Beckman Coulter, USA), followed by the addition of C. difficile suspension, in RCM, 100 μL/well. The final bacterial count was 2 x 10^5 to 1 x 10^6 colony forming units/mL, in 200 μL per assay well. […] Assay plates were incubated at 35°C for 46 to 48 hr in the anaerobic chamber (A35 Anaerobic Workstation, Don Whitley, UK). Following incubation, test plates were visually examined and each well was scored for growth then the MIC was recorded as the lowest concentration that results in complete inhibition of growth. Each test substance was evaluated in duplicate. Vehicle-control and vancomycin were used as blank and positive controls, respectively. The MIC values of the vancomycin controls were consistent with the historical data against test strains (data not shown).
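Throughout, for Forced degradation Δ Conc: purity and concentration determined by HPLC on aqueous solutions kept in a stability chamber, with samples analyzed at day 0 and after incubation.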
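Throughout, for Forced degradation Δ Purity: purity and concentration determined by HPLC on aqueous solutions kept in a stability chamber, with samples analyzed at day 0 and after incubation.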

Structure (SMILES): C=C1NC(=O)[C@H](Cc2c[nH]c3ccccc23)NC(=O)[C@H](NC(=O)[C@H](CCCCN)NC(=O)[C@@H](N)CC(C)C)CSC[C@@H](C(=O)N[C@H]2C(=O)N3CCC[C@H]3C(=O)NCC(=O)N[C@H](C(=O)N[C@@H](C)C(=O)N[C@@H](CC(=O)O)C(=O)N/C(=C\C)C(=O)NCC(=O)N[C@@H]3CSC[C@@H]4NC(=O)[C@H](Cc5ccc(O)cc5)NC(=O)[C@@H](CS/C=C\NC4=O)NC(=O)[C@H](CC(N)=O)NC(=O)[C@H](Cc4ccccc4)NC3=O)CS[C@H]2C)NC(=O)[C@H](CC(C)C)NC1=O [OG705]
- Forced degradation Δ Conc ([1]; 2 Days at 37°C): -11.4% and -11%
- Forced degradation Δ Purity ([1]; 2 Days at 37°C): -0.29%
- Forced degradation Δ Conc ([1]; 2 Days at +50°C): -11%
- Forced degradation Δ Purity ([1]; 2 Days at +50°C): -1.32%
- Forced degradation Δ Conc ([1]; 7 Days at 37°C): -12.3% and -12%
- Forced degradation Δ Purity ([1]; 7 Days at 37°C): -0.61%
- Forced degradation Δ Conc ([1]; 7 Days at +50°C): -26%
- Forced degradation Δ Purity ([1]; 7 Days at +50°C): -3.22%
- MIC 50 [2]: 1 µg/mL (≈ 0.457 µM)
- MIC 90 [2]: 2 µg/mL (≈ 0.913 µM)
- MIC Mode [2]: 1 µg/mL (≈ 0.457 µM)
- MIC Range [2]: 0.5 to 2 µg/mL
- Minimum Inhibitory Concentration C. difficile 103-1 [2]: 0.5 µg/mL
- Minimum Inhibitory Concentration C. difficile 107-1 [2]: 2 µg/mL
- Minimum Inhibitory Concentration C. difficile ATCC 9689 [2]: 1 µg/mL
- Minimum Inhibitory Concentration C. difficile ATCC 43597 [2]: 1 µg/mL
- Minimum Inhibitory Concentration C. difficile ATCC BAA-1805 [2]: 1 µg/mL
- Minimum Inhibitory Concentration C. difficile ATCC BAA-1808 [2]: 1 µg/mL
- Minimum Inhibitory Concentration C. difficile ATCC BAA-1874 [2]: 1 µg/mL
- Minimum Inhibitory Concentration C. difficile ATCC BAA-1875 [2]: 1 µg/mL

Structure (SMILES): C=C1NC(=O)[C@H](Cc2c[nH]c3ccccc23)NC(=O)[C@H](NC(=O)[C@H](CCCCN)NC(=O)[C@@H](N)CC(C)C)CSC[C@@H](C(=O)N[C@H]2C(=O)N3CCC[C@H]3C(=O)NCC(=O)N[C@H](C(=O)N[C@@H](C)C(=O)N[C@@H](C)C(=O)N/C(=C\C)C(=O)NCC(=O)N[C@@H]3CSC[C@@H]4NC(=O)[C@H](Cc5ccc(O)cc5)NC(=O)[C@@H](CS/C=C\NC4=O)NC(=O)[C@H](CC(N)=O)NC(=O)[C@H](Cc4ccccc4)NC3=O)CS[C@H]2C)NC(=O)[C@H](CC(C)C)NC1=O [OG713]
- Forced degradation Δ Conc ([1]; 2 Days at 37°C): -11.9% and -12%
- Forced degradation Δ Purity ([1]; 2 Days at 37°C): -0.06%
- Forced degradation Δ Conc ([1]; 2 Days at +50°C): -16.9% and -17%
- Forced degradation Δ Purity ([1]; 2 Days at +50°C): -1.51%
- Forced degradation Δ Conc ([1]; 7 Days at 37°C): -8.8% and -9%
- Forced degradation Δ Purity ([1]; 7 Days at 37°C): -0.56%
- Forced degradation Δ Conc ([1]; 7 Days at +50°C): -41%
- Forced degradation Δ Purity ([1]; 7 Days at +50°C): -6.98%
- MIC 50 [2]: 0.5 µg/mL (≈ 0.233 µM)
- MIC 90 [2]: 0.5 µg/mL (≈ 0.233 µM)
- MIC Mode [2]: 0.5 µg/mL (≈ 0.233 µM)
- MIC Range [2]: 0.25 to 0.5 µg/mL
- Minimum Inhibitory Concentration C. difficile 103-1 [2]: 0.25 µg/mL
- Minimum Inhibitory Concentration C. difficile 107-1 [2]: 0.5 µg/mL
- Minimum Inhibitory Concentration C. difficile ATCC 9689 [2]: 0.5 µg/mL
- Minimum Inhibitory Concentration C. difficile ATCC 43597 [2]: 0.5 µg/mL
- Minimum Inhibitory Concentration C. difficile ATCC BAA-1805 [2]: 0.25 µg/mL
- Minimum Inhibitory Concentration C. difficile ATCC BAA-1808 [2]: 0.5 µg/mL
- Minimum Inhibitory Concentration C. difficile ATCC BAA-1874 [2]: 0.5 µg/mL
- Minimum Inhibitory Concentration C. difficile ATCC BAA-1875 [2]: 0.5 µg/mL
